The text below walks through data of patent US20110112195A1 (priority 2004, published 2011).

The subject of one data set is West Nile Virus. The data set is classed as cell-based.
The subject of the next data set is Adenovirus. The data set is classed as cell-based.
Data set [1] concerns SARS-CoV. Kind of data set: microbe, parasite or virus in culture. Format: cell-based.
Data set [2] relates to SARS-CoV. The data set is classed as cell-based.
Data set [3] concerns adenovirus type 5 expressing EGFP. Format: cell-based.
Data set [4] deals with vaccinia virus (WR). The data set is classed as cell-based.
A further data set is described as follows: in vitro. Conditions: African green monkey.
Data set [5] concerns vaccinia virus (WR). The data set is classed as cell-based. This is another data set of the same source.
In a further data set the test system is Ebola. The data set is classed as cell-based.
Data set [6] has as its target H1L phosphatase (GST-H1L fusion protein) (Vaccinia virus, UniProt P07239). Kind of data set: biochemical.
Data set [7] concerns SARS-CoV. Conditions: cited from earlier work.

≈ marks a conversion by molar mass, not a printed value. Where two headings read alike, the source gives them in different places. Bounds are passed on as bounds.

For the molecule `O=C(O)C1=CC(=C(c2ccc(O)c(C(=O)O)c2)c2ccc(O)c(C(=O)O)c2)C=CC1=O` [ATA, aurintricarboxylic acid], the “inhibition of West Nile Virus” value with West Nile Virus is 10000 fold. The “effect on Adenovirus” value in the data set on Adenovirus was “no effect”. Further, in the data set with SARS-CoV [1], the “inhibition of virus replication compared to untreated controls” value is on record as ≤ 1000 fold and the “viral replication level lower than control” value is 10 times. The molecule also registered an EC50 with SARS-CoV [1] (Severe acute respiratory syndrome coronavirus, Vero) of 0.2 mg/mL (≈ 0.474 mM). Moreover, in the data set on SARS-CoV [2], the “inhibition of virus RNA replication” value is on record as “more than 1,000 fold”, the “potency of ATA relative to interferon α as anti-SARS-CoV agent” value is given as “about 10 times” and the “potency of ATA relative to interferon β as anti-SARS-CoV agent” value was ~100 times. Besides, the “inhibition of EGFP expression by adenovirus” value in data set [3] is listed as “No significant inhibition”. In the data set with vaccinia virus (WR) [4], the “plaque count (peak viral load)” value is 616 pfu/mL and the “viral count in treated sample as share of untreated control” value is recorded as 0.00026%. Further, in the data set “in vitro”, the CC50 is 37.5 mg/mL (≈ 88.8 mM). Also, the “lowest drug concentration at which block in vaccinia replication was evident” value in the data set with vaccinia virus (WR) [5] turned out to be 25 µg/mL. Besides, the “effect on Ebola” value in the data set on Ebola was “no effect”. In addition, half-maximal inhibition in [6] (IC50) was put at 16 µM. Further, the “toxicity associated with treatment” value with Vero cells was “little toxicity”.

Regarding `CC1(C)[C@@H](O[C@H]2O[C@H](C(=O)O)[C@@H](O)[C@H](O)[C@H]2O[C@@H]2O[C@H](C(=O)O)[C@@H](O)[C@H](O)[C@H]2O)CC[C@]2(C)[C@H]3C(=O)C=C4[C@@H]5C[C@@](C)(C(=O)O)CC[C@]5(C)CC[C@@]4(C)[C@]3(C)CC[C@@H]12` [glycyrrhizin], the “inhibition effect on SARS-CoV replication (logs)” value with SARS-CoV [7] was “two logs or less”.

For the molecule `Cc1c(O)cccc1C(=O)N[C@@H](CSc1ccccc1)[C@H](O)CN1C[C@H]2CCCC[C@H]2C[C@H]1C(=O)NC(C)(C)C` [nelfinavir], the “inhibition effect on SARS-CoV replication (logs)” value with SARS-CoV [7] is “two logs or less”.

Take `NC(=O)c1ncn([C@@H]2O[C@H](CO)[C@@H](O)[C@H]2O)n1` [ribavarin]: the “effect against SARS-CoV replication” value in the data set with SARS-CoV [7] is listed as “little effect”.

On to IFNα, for which, in the data set on SARS-CoV [1], the EC50 turned out to be 500 IU/ml. Further, in the data set on SARS-CoV [2], the “inhibition effect with pre-treatment compared with samples without pre-treatment” value is “about the same” and the “inhibition of virus RNA replication” value is 100 fold. In addition, the CC50 in the data set with Vero cells is on record as 15000 IU/ml.
